From patent US8852554B2, “Radiolabelled PDE10 ligands” (Janssen Pharmaceutica NV, priority 2009, dated 2014)
Values joined by “and” are separate entries in the source; they are usually repeats but may differ in a detail not shown here. Identical values can stand only once.

Test: Biodistribution studies of the 18F tracers in rats
Format: in vivo, male Wistar rats
Settings: rat
Method: Biodistribution studies were carried out in healthy male Wister rats (body weight 200-500 g) at 2 min, 30 min and 60 min post injection (p.i.) (n=3/time point). For |^18F|B-4 only the 2 min and 30 min time points were studied. […] Blood and major organs were collected in tared tubes and weighed. The radioactivity in blood, organs and other body parts was measured using an automated gamma counter. The distribution of radioactivity in different parts of the body at different time points p.i. of the tracer was calculated and expressed as percentage of injected dose (% ID), and as percentage of injected dose per gram tissue (% ID/g) for the selected organs. % ID is calculated as cpm in organ/total cpm recovered. For calculation of total radioactivity in blood, blood mass was assumed to be 7% of the body mass.

Cc1cccc(COc2ccc(-c3nn(CC[18F])cc3-c3ccncc3)cc2)n1 [[^18F]B-1]
retention in the PDE10A-rich region striatum (biodistribution studies): no significant retention
2 min/30 min ratios of % ID/g (normalized for body weight), all brain regions (i.v.): ≥ 2.49
Clearance, 2 min/30 min ratio of % ID/g (normalized for body weight), Blood (i.v.): 1.65
Clearance, 2 min/30 min ratio of % ID/g (normalized for body weight), Cerebellum (i.v.): 4.01
Clearance, 2 min/30 min ratio of % ID/g (normalized for body weight), Cerebrum total (i.v.): 2.88
Clearance, 2 min/30 min ratio of % ID/g (normalized for body weight), Cortex (i.v.): 3.47
Clearance, 2 min/30 min ratio of % ID/g (normalized for body weight), Hippocampus (i.v.): 3.06
Clearance, 2 min/30 min ratio of % ID/g (normalized for body weight), Rest of cerebrum (i.v.): 2.86
Clearance, 2 min/30 min ratio of % ID/g (normalized for body weight), Striatum (i.v.): 2.49
Clearance, 2 min/60 min ratio of % ID/g (normalized for body weight), Blood (i.v.): 1.83
Clearance, 2 min/60 min ratio of % ID/g (normalized for body weight), Cerebellum (i.v.): 6.60
Clearance, 2 min/60 min ratio of % ID/g (normalized for body weight), Cerebrum total (i.v.): 3.60
Clearance, 2 min/60 min ratio of % ID/g (normalized for body weight), Cortex (i.v.): 5.55
Clearance, 2 min/60 min ratio of % ID/g (normalized for body weight), Hippocampus (i.v.): 3.63
Clearance, 2 min/60 min ratio of % ID/g (normalized for body weight), Rest of cerebrum (i.v.): 3.29
Clearance, 2 min/60 min ratio of % ID/g (normalized for body weight), Striatum (i.v.): 3.41
% ID, Carcass (i.v., 2 min p.i.): 33.12 ± 2.3 % ID
% ID, Cerebellum (i.v., 2 min p.i.): 0.09 % ID and 0.091 ± 0.018 % ID
% ID, Cerebrum total (i.v., 2 min p.i.): 0.49 % ID and 0.490 ± 0.067 % ID
% ID, Cortex (i.v., 2 min p.i.): 0.069 ± 0.008 % ID
% ID, Heart (i.v., 2 min p.i.): 0.60 ± 0.1 % ID
% ID, Hippocampus (i.v., 2 min p.i.): 0.018 ± 0.004 % ID
% ID, Intestines (i.v., 2 min p.i.): 10.79 ± 1.5 % ID
% ID, Kidneys (i.v., 2 min p.i.): 4.24 ± 0.5 % ID
% ID, Liver (i.v., 2 min p.i.): 41.94 ± 2.2 % ID
% ID, Lungs (i.v., 2 min p.i.): 0.92 ± 0.2 % ID
% ID, Rest of cerebrum (i.v., 2 min p.i.): 0.367 ± 0.054 % ID
% ID, Spleen + Pancreas (i.v., 2 min p.i.): 1.92 ± 0.2 % ID
% ID, Stomach (i.v., 2 min p.i.): 3 % ID and 3.09 ± 0.1 % ID
% ID, Striatum (i.v., 2 min p.i.): 0.036 ± 0.012 % ID
% ID, Urine (i.v., 2 min p.i.): 0.09 ± 0.1 % ID
% ID/g normalized for body weight, Blood (i.v., 2 min p.i.): 0.06 ± 0.01 % ID/g × body wt. in kg
% ID/g normalized for body weight, Cerebellum (i.v., 2 min p.i.): 0.164 ± 0.01 % ID/g × body wt. in kg
% ID/g normalized for body weight, Cerebrum + Cerebellum (i.v., 2 min p.i.): 0.13 ± 0.01 % ID/g × body wt. in kg
% ID/g normalized for body weight, Cerebrum total (i.v., 2 min p.i.): 0.120 ± 0.01 % ID/g × body wt. in kg
% ID/g normalized for body weight, Cortex (i.v., 2 min p.i.): 0.199 ± 0.04 % ID/g × body wt. in kg
% ID/g normalized for body weight, Heart (i.v., 2 min p.i.): 0.21 ± 0.02 % ID/g × body wt. in kg
% ID/g normalized for body weight, Hippocampus (i.v., 2 min p.i.): 0.083 ± 0.01 % ID/g × body wt. in kg
% ID/g normalized for body weight, Kidneys (i.v., 2 min p.i.): 0.47 ± 0.05 % ID/g × body wt. in kg
% ID/g normalized for body weight, Liver (i.v., 2 min p.i.): 0.92 ± 0.05 % ID/g × body wt. in kg
% ID/g normalized for body weight, Lungs (i.v., 2 min p.i.): 0.19 ± 0.08 % ID/g × body wt. in kg
% ID/g normalized for body weight, Rest of cerebrum (i.v., 2 min p.i.): 0.111 ± 0.00 % ID/g × body wt. in kg
% ID/g normalized for body weight, Spleen + Pancreas (i.v., 2 min p.i.): 0.40 ± 0.03 % ID/g × body wt. in kg
% ID/g normalized for body weight, Striatum (i.v., 2 min p.i.): 0.175 ± 0.02 % ID/g × body wt. in kg
% ID/g, Blood (i.v., 2 min p.i.): 0.21 ± 0.02 % ID/g
% ID/g, Cerebellum (i.v., 2 min p.i.): 0.607 ± 0.019 % ID/g
% ID/g, Cerebrum + Cerebellum (i.v., 2 min p.i.): 0.47 ± 0.03 % ID/g
% ID/g, Cerebrum total (i.v., 2 min p.i.): 0.444 ± 0.026 % ID/g
% ID/g, Cortex (i.v., 2 min p.i.): 0.734 ± 0.148 % ID/g
% ID/g, Heart (i.v., 2 min p.i.): 0.76 ± 0.09 % ID/g
% ID/g, Hippocampus (i.v., 2 min p.i.): 0.307 ± 0.041 % ID/g
% ID/g, Liver (i.v., 2 min p.i.): 3.40 ± 0.31 % ID/g
% ID/g, Lungs (i.v., 2 min p.i.): 0.69 ± 0.34 % ID/g
% ID/g, Rest of cerebrum (i.v., 2 min p.i.): 0.411 ± 0.023 % ID/g
% ID/g, Spleen + Pancreas (i.v., 2 min p.i.): 1.47 ± 0.15 % ID/g
% ID/g, Striatum (i.v., 2 min p.i.): 0.648 ± 0.075 % ID/g
striatum/blood ratio (from % ID/g normalized for body weight) (i.v., 2 min p.i.): 3.10
striatum/cerebellum ratio (from % ID/g normalized for body weight) (i.v., 2 min p.i.): 1.07
striatum/cortex ratio (from % ID/g normalized for body weight) (i.v., 2 min p.i.): 0.88
striatum/hippocampus ratio (from % ID/g normalized for body weight) (i.v., 2 min p.i.): 2.11
total initial brain uptake (i.v., 2 min p.i.): 0.59 % ID
% ID, Blood (i.v., 30 min p.i.): 2.40 ± 0.4 % ID
% ID, Carcass (i.v., 30 min p.i.): 25.50 ± 2.1 % ID
% ID, Cerebellum (i.v., 30 min p.i.): 0.028 ± 0.000 % ID
% ID, Cerebrum total (i.v., 30 min p.i.): 0.172 ± 0.012 % ID
% ID, Cortex (i.v., 30 min p.i.): 0.026 ± 0.004 % ID
% ID, Heart (i.v., 30 min p.i.): 0.21 ± 0.0 % ID
% ID, Hippocampus (i.v., 30 min p.i.): 0.006 ± 0.000 % ID
% ID, Intestines (i.v., 30 min p.i.): 14.67 ± 3.3 % ID
% ID, Kidneys (i.v., 30 min p.i.): 1.44 ± 0.2 % ID
% ID, Liver (i.v., 30 min p.i.): 45.29 ± 5.2 % ID
% ID, Lungs (i.v., 30 min p.i.): 0.42 ± 0.1 % ID
% ID, Rest of cerebrum (i.v., 30 min p.i.): 0.127 ± 0.010 % ID
% ID, Spleen + Pancreas (i.v., 30 min p.i.): 0.57 ± 0.2 % ID
% ID, Stomach (i.v., 30 min p.i.): 10 % ID and 9.73 ± 1.7 % ID
% ID, Striatum (i.v., 30 min p.i.): 0.013 ± 0.001 % ID
% ID, Urine (i.v., 30 min p.i.): 0.29 ± 0.0 % ID
% ID/g normalized for body weight, Blood (i.v., 30 min p.i.): 0.03 ± 0.01 % ID/g × body wt. in kg
